The values below come from article PMC4742234, “Screening of Drug Metabolizing Enzymes for the Ginsenoside Compound K In Vitro: An Efficient Anti-Cancer Substance Originating from Panax Ginseng” (PLoS ONE, 2016).

Series [1] concerns CYP3A4. Set-up: method as in Hao et al.(2008). The conditions noted are these: baculosomes, ref Hao et al.(2008); cited from earlier work.
Series [2] concerns CYP1A2, CYP2A6, CYP2D6, CYP2E1, CYP2C19. Briefly: Effect of the other specific inhibitors on CK metabolism in HLMs. The series is classed as in vitro ADME, human. The conditions noted are these: CK 50 μM, furafylline, tranylcypromine, quinidine, ticlopidine 1 μM, chlormethiazole 5 μM. The protocol:
(§1) The method was conducted according to our previous study with some modifications. The CYP isoform-specific probe reactions used were phenacetin O-deethylation (for CYP1A2), coumarin 7-hydroxylation (for CYP2A6), tolbutamide 4-hydroxylation (for CYP2C9), metoprolol α-hydroxylation (for CYP2D6), chlorzoxazone 6-hydroxylation (for CYP2E1),S-Mephenytoin 4-hydroxylation (for CYP2C19), and midazolam 1-hydroxylation (for CYP3A4). The kinetic study of CK was conducted with HLMs. A 0.2 mL incubation mixture that consisted of CK (as a substrate), the HLMs (0.5 mg/mL) or CYP isoforms (10 pmol), and 0.1 M sodium phosphate buffer (pH 7.4) was pre-warmed for 5 min at 37°C. The reaction was initiated by the addition of 1 mg/mL triphosphopyridine nucleotide (NADPH). […]
To screen the specific CYP isoform responsible for the CK metabolism, we determined the inhibitory effect of specific inhibitors on the metabolism of CK in the HLMs as described in detail previously. […] The inhibitory effects of the above specific inhibitors on the metabolic clearance rate of CK were evaluated separately to screen the CYP isoforms responsible for the CK metabolism. The relative activity of the CYP isoforms was calculated by dividing the peak area of CK when incubated with the inhibitor by that of CK from the negative controls. […]

Series [3] deals with CYP3A4 (Homo sapiens, UniProt P08684). Briefly: Kinetic analysis of CK metabolism by recombinant CYP3A4. Set-up: purchased Cypex Ltd. (U.K.). The series is classed as in vitro ADME. The following applies: recombinant CYP3A4 10 pmol, CK 10–100 μM. Here is the method:
as §1
(§2) The kinetic parameters for the metabolism of CK were determined by incubating increasing concentrations of CK (10–100 μM) at 37°C with the HLMs and NADPH under the incubation conditions as described in detail previously. The equation of CK reaction velocity (V) in the HLMs or CYP isoforms is expressed as V = (C0–Ct)/T/Cp, where C0and Ct are the initial and final concentrations of CK in the incubation solution, respectively, T is the incubation time (min), and Cp is the protein concentration (mg/mL or nmol). All values were expressed as the mean±standard deviation (SD). […]

Another series deals with CYP2C9 (Homo sapiens, UniProt P11712). In words: Kinetic analysis of CK metabolism by recombinant CYP2C9. The series is classed as in vitro ADME. Set-up: purchased Cypex Ltd. (U.K.). The conditions noted are these: recombinant CYP2C9 10 pmol, CK 10–100 μM. The protocol: as §1, §2

Values joined by “and” are separate entries in the source; they are usually repeats but may differ in a detail not shown here. Identical values can stand only once. “Also recorded” adds a separate entry of the source.

CYP3A4 (Homo sapiens, UniProt P08684), sequence (P08684 whole entry): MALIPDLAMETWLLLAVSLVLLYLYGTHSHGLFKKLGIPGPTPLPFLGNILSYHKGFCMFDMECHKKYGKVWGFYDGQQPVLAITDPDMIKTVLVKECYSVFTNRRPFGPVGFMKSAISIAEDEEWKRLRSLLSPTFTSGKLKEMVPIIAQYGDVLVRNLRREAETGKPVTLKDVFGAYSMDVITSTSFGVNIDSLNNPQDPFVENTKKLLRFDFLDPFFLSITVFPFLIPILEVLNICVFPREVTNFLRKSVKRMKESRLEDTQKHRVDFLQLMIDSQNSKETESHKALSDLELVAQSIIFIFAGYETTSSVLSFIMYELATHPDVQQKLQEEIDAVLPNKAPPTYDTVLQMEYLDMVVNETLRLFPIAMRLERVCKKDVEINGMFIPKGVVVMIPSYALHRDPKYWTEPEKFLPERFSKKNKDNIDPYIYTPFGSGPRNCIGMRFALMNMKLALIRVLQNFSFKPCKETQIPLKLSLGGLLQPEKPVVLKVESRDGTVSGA
CYP2C9, sequence (P11712 whole entry): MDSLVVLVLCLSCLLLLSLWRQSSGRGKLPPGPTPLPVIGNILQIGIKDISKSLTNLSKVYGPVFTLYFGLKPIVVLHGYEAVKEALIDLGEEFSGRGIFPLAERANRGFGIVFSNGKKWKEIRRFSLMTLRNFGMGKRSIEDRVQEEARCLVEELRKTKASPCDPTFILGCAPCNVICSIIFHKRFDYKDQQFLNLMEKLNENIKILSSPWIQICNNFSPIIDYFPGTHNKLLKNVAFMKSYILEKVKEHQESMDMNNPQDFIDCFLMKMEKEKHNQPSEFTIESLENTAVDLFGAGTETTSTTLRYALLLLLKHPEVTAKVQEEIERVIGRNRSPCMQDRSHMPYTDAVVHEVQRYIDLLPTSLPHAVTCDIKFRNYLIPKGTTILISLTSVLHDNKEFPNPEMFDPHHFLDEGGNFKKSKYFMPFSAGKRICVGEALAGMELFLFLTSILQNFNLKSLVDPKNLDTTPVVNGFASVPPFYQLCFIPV

For `CC(C)=CCC[C@](C)(OC1O[C@H](CO)[C@@H](O)[C@H](O)[C@H]1O)[C@H]1CC[C@]2(C)[C@@H]1[C@H](O)C[C@@H]1[C@@]3(C)CC[C@H](O)C(C)(C)[C@@H]3CC[C@]12C` (stereo partly drawn) [CK, 20-O-β-(D-glucopyranosyl)-20(S)-protopanaxadiol], the CYP3A4 inhibition entry in the series on CYP3A4 [1] is reported as “moderate”. Besides, the “effect of other specific inhibitors / CYP isoforms on CK metabolism” value in series [2] is “minimal or no effect; also recorded: no obvious inhibitory effects; also recorded: no significant inhibitory effects”. In addition, the “Vmax of CK metabolism” value at CYP3A4 [3] was 0.68±0.04 nmol/nmol P450/min and 0.6756 nmol/nmol P450/min; at CYP2C9 it was 0.45±0.05 nmol/nmol P450/min and 0.4537 nmol/nmol P450/min.
